Experimental data published in patent US9656962B2, “Ring-contracted morphinans and the use thereof” (Purdue Pharma L.P., priority 2013, dated 2017).

How the values were obtained:
Type in all cases: biochemical
μ-opioid receptor [1] = target: T1, μ-opioid receptor (Homo sapiens (Human), UniProt P35372); assay: μ-opioid receptor [35S]GTPγS functional assay, U-2 OS cells (Table 5); details: for Emax: relative to DAMGO; for EC50: μ GTP
Procedure: (§1) μ-Opioid Receptor Functional Assay Procedures: [^35S]GTPγS functional assays were conducted using freshly thawed μ-receptor membranes prepared in-house from a cell line expressing recombinant μ opioid receptor in a HEK-293, CHO or U-2 OS cell background, or purchased from a commercial source (Perkin Elmer, Shelton, Conn.; or DiscovRx, Fremont, Calif.). Assay reactions were prepared by sequentially adding the following reagents to binding buffer (100 mM NaCl, 10 mM MgCl2, 20 mM HEPES, pH 7.4) on ice (final concentrations indicated): membrane protein (0.026 mg/mL), saponin ([…]), GDP ([…]) and [^35S]GTPγS (0.20 nM; Perkin Elmer, Shelton, Conn.). The prepared membrane solution (190 μl/well) was transferred to 96-shallow well polypropylene plates containing 10 μl of 20× concentrated stock solutions of the agonist [D-Ala^2, N-methyl-Phe^4 Gly-ol^5]-enkephalin (DAMGO) prepared in dimethyl sulfoxide (DMSO). Plates were incubated for 30 min at about 25° C. with shaking Reactions were terminated by rapid filtration onto 96-well Unifilter GF/B filter plates (Perkin Elmer, Shelton, Conn.) using a 96-well tissue harvester (Perkin Elmer, Shelton, Conn.) followed by three filtration washes with 200 μl of ice-cold wash buffer (10 mM NaH2PO4, 10 mM Na2HPO4, pH 7.4). Filter plates were subsequently dried at 50° C. for 2-3 hours. BetaScint scintillation cocktail (Perkin Elmer, Shelton, Conn.) was added (50 μl/well) and plates were counted using a Packard Top-Count for 1 min/well. Data were analyzed using the sigmoidal dose-response curve fitting functions in GraphPad PRISM v. 3.0, or an in-house function for non-linear, sigmoidal dose-response curve-fitting. [^35S]GTPγS functional assays can also be conducted using freshly thawed μ-receptor membranes prepared from a cell line expressing recombinant μ opioid receptor in a CHO-K1 cell background.
μ GTP Emax (%) is the maximal effect elicited by a compound relative to the effect elicited by DAMGO, a standard μ agonist.

κ-opioid receptor = κ-opioid receptor (Homo sapiens (Human), UniProt P41145); assay: κ-opioid receptor [35S]GTPγS functional assay, U-2 OS cells (Table 5); details: for Emax: relative to U69,593; for EC50: κ GTP
Procedure: κ-Opioid Receptor Functional Assay Procedures: Functional [^35S]GTPγS binding assays were conducted as follows. κ opioid receptor membrane solution was prepared by sequentially adding final concentrations of 0.026 μg/μl κ membrane protein (in-house), 10 μg/mL saponin, 3 μM GDP and 0.20 nM [^35S]GTPγS to binding buffer (100 mM NaCl, 10 mM MgCl2, 20 mM HEPES, pH 7.4) on ice. The prepared membrane solution (190 μl/well) was transferred to 96-shallow well polypropylene plates containing 10 μl of 20× concentrated stock solutions of agonist prepared in DMSO. Plates were incubated for 30 min at a temperature of about 25° C. with shaking. Reactions were terminated by rapid filtration onto 96-well Unifilter GF/B filter plates (Perkin Elmer, Shelton, Conn.) using a 96-well tissue harvester (Packard) and followed by three filtration washes with 200 μl ice-cold binding buffer (10 mM NaH2PO4, 10 mM Na2HPO4, pH 7.4). Filter plates were subsequently dried at 50° C. for 2-3 hours. Fifty μl/well scintillation cocktail (Perkin Elmer, Shelton, Conn.) was added and plates were counted in a Packard Top-Count for 1 min/well.
κ GTP Emax (%) is the maximal effect elicited by a compound relative to the effect elicited by U69,593.
The following TABLE 5 provides results on the activity response of certain Compounds of the Invention at the μ- and κ-opioid receptors determined as described above using U-2 OS cells.

μ-opioid receptor [2] = target: T1, μ-opioid receptor; assay: μ-opioid receptor [35S]GTPγS functional assay, HEK-293 cells (Table 6); details: for EC50: μ GTP
Procedure: as §1
μ GTP Emax (%) is the maximal effect elicited by a compound relative to the effect elicited by DAMGO, a standard μ agonist. Generally, the μ GTP Emax (%) value measures the efficacy of a compound to treat or prevent pain or other Conditions.
The following TABLE 6 provides results on the activity response of certain Compounds of the Invention at the μ- and κ-opioid receptors determined as described above using HEK-293 cells.

Compound	Emax (μ-opioid receptor [2]; relative to DAMGO) [%]	EC50 (μ-opioid receptor [2]) [µM]	EC50 (μ-opioid receptor [2]; bound given in μM) [µM]	further results
O=C(NCCc1ccccc1)[C@@H]1C[C@]23CCN(CC4CC4)[C@H](Cc4ccc(O)cc42)[C@]3(O)C1 [Compound 50, (2R,3aS,4R,9bS)-12-(cyclopropylmethyl)-3a,8-dihydroxy-N-phenethyl-1,2,3,3a,4,5-hexahydro-4,9b-(epiminoethano)-cyclopenta[a]naphthalene-2-carboxamide]	–	–	–	Emax (μ-opioid receptor [1]): 23.3 ± 1.86%; EC50 (μ-opioid receptor [1]): 0.0069 ± 0.00054 µM; Emax (κ-opioid receptor): 107.7 ± 0.88%; EC50 (κ-opioid receptor): 1.95 ± 0.33 nM
CCN(CC)C(=O)[C@@H]1C[C@]23CCN(CC4CC4)[C@H](Cc4ccc(O)cc42)[C@]3(O)C1 [Compound 59, (2R,3aS,4R,9bS)-12-(cyclopropylmethyl)-N,N-diethyl-3a,8-dihydroxy-1,2,3,3a,4,5-hexahydro-4,9b-(epiminoethano)cyclo-penta[a]naphthalene-2-carboxamide]	–	–	–	Emax (μ-opioid receptor [1]): 25.7 ± 0.33%; EC50 (μ-opioid receptor [1]): 0.0226 ± 0.00631 µM; Emax (κ-opioid receptor): 105 ± 4.33%; EC50 (κ-opioid receptor): 26 ± 2.61 nM
COc1ccc2c(c1)[C@]13CCN(CC4CC4)[C@H](C2)[C@]1(O)C[C@H](N)C3 [Compound 21, (2R,3aS,4R,9bS)-2-amino-12-(cyclopropylmethyl)-8-methoxy-1,2,3,3a,4,5-hexahydro-4,9b-(epimino-ethano)cyclopenta[a]naphthalene-3a-ol]	–	–	–	Emax (μ-opioid receptor [1]): 8.67 ± 1.76%; EC50 (μ-opioid receptor [1]; bound given in μM): > 20 µM; Emax (κ-opioid receptor): 90 ± 2.08%; EC50 (κ-opioid receptor): 5590 ± 738 nM
CC(C)CNC(=O)[C@@H]1C[C@]23CCN(CC4CC4)[C@H](Cc4ccc(O)cc42)[C@]3(O)C1 [Compound 35, (2R,3aS,4R,9bS)-12-(cyclopropylmethyl)-3a,8-dihydroxy-N-isobutyl-1,2,3,3a,4,5-hexahydro-4,9b-(epiminoethano)cyclo-penta[a]naphthalene-2-carboxamide]	–	–	–	Emax (μ-opioid receptor [1]): 29.7 ± 0.33%; EC50 (μ-opioid receptor [1]): 0.0197 ± 0.00527 µM; Emax (κ-opioid receptor): 111 ± 2.96%; EC50 (κ-opioid receptor): 7.75 ± 0.41 nM
CN1CC[C@]23C[C@H](C(=O)NCc4ccc(Cl)c(Cl)c4)C[C@@]2(O)[C@H]1Cc1ccc(O)cc13 [Compound 101, (2S,3aS,4R,9bS)-N-(3,4-dichlorobenzyl)-3a,8-dihydroxy-12-methyl-1,2,3,3a,4,5-hexahydro-4,9b-(epiminoethano)cyclo-penta[a]naphthalene-2-carboxamide]	96.7 ± 2.19	0.00158 ± 0.00022	–	–
O=C(NCc1cc(O)cc(O)c1)[C@@H]1C[C@]23CCN(CC4CC4)[C@H](Cc4ccc(O)cc42)[C@]3(O)C1 [Compound 139, (2R,3aS,4R,9bS)-12-(cyclopropylmethyl)-N-(3,5-dihydroxybenzyl)-3a,8-dihydroxy-1,2,3,3a,4,5-hexahydro-4,9b-(epimino-ethano)cyclopenta[a]naphthalene-2-carboxamide]	-1	–	> 20	–
Cc1c(Cl)cccc1CNC(=O)[C@@H]1C[C@]23CCN(CC4CC4)[C@H](Cc4ccc(O)cc42)[C@]3(O)C1 [Compound 125, (2R,3aS,4R,9bS)-N-(3-chloro-2-methylbenzyl)-12-(cyclopropylmethyl)-3a,8-dihydroxy-1,2,3,3a,4,5-hexahydro-4,9b-(epiminoethano)cyclopenta-[a]naphthalene-2-carboxamide]	-1	–	> 20	–
C[C@@H]1CN(CCNC(=O)[C@H]2C[C@]34CCN(CC5CC5)[C@H](Cc5ccc(O)cc53)[C@]4(O)C2)C[C@H](C)O1 [Compound 135, (2S,3aS,4R,9bS)-12-(cyclopropylmethyl)-N-(2-((2S,6R)-2,6-dimethylmorpholino)-ethyl)-3a,8-dihydroxy-1,2,3,3a,4,5-hexahydro-4,9b-(epiminoethano)cyclo-penta[a]naphthalene-2-carboxamide]	19.7 ± 0.89	0.0103 ± 0.00103	–	–
O=C(NCc1ccc(Cl)cc1F)[C@@H]1C[C@]23CCN(CC4CC4)[C@H](Cc4ccc(O)cc42)[C@]3(O)C1 [Compound 136, (2R,3aS,4R,9bS)-N-(4-chloro-2-fluorobenzyl)-12-(cyclopropylmethyl)-3a,8-dihydroxy-1,2,3,3a,4,5-hexahydro-4,9b-(epiminoethano)cyclopenta-[a]naphthalene-2-carboxamide]	-0.33 ± 0.67	–	> 20	–
O=C(NCc1cccc(O)c1O)[C@@H]1C[C@]23CCN(CC4CC4)[C@H](Cc4ccc(O)cc42)[C@]3(O)C1 [Compound 124, (2R,3aS,4R,9bS)-12-(cyclopropylmethyl)-N-(2,3-dihydroxybenzyl)-3a,8-dihydroxy-1,2,3,3a,4,5-hexahydro-4,9b-(epimino-ethano)cyclopenta[a]naphthalene-2-carboxamide]	1.93 ± 2.93	–	> 20	–
Cc1ccc(CNC(=O)[C@H]2C[C@]34CCN(CC5CC5)[C@H](Cc5ccc(O)cc53)[C@]4(O)C2)cc1Cl [Compound 137, (2S,3aS,4R,9bS)-N-(3-chloro-4-methylbenzyl)-12-(cyclopropylmethyl)-3a,8-dihydroxy-1,2,3,3a,4,5-hexahydro-4,9b-(epiminoethano)cyclopenta-[a]naphthalene-2-carboxamide]	55.5 ± 0.31	0.00045 ± 6.1e-05	–	–
Cc1ccc(CNC(=O)[C@H]2C[C@]34CCN(CC5CC5)[C@H](Cc5ccc(C#N)cc53)[C@]4(O)C2)cc1 [Compound 121, (2S,3aS,4R,9bS)-8-cyano-12-(cyclopropylmethyl)-3a-hydroxy-N-(4-methylbenzyl)-1,2,3,3a,4,5-hexahydro-4,9b-(epiminoethano)cyclopenta-[a]naphthalene-2-carboxamide]	29.3 ± 1.78	1.09 ± 0.0702	–	–
CN1CC[C@]23C[C@@H](NC(=O)c4ccccc4)C[C@@]2(O)[C@H]1Cc1ccc(O)cc13 [Compound 110, N-((2R,3aS,4R,9bR)-3a,8-dihydroxy-12-methyl-1,2,3,3a,4,5-hexahydro-4,9b-(epiminoethano)cyclopenta[a]naphthalen-2-yl)benzamide]	35.2 ± 0.76	8.41 ± 0.956	–	–
O=C(NCc1ccc(F)c(F)c1)[C@@H]1C[C@]23CCN(CC4CC4)[C@H](Cc4ccc(O)cc42)[C@]3(O)C1 [Compound 145, (2R,3aS,4R,9bS)-12-(cyclopropylmethyl)-N-(3,4-difluorobenzyl)-3a,8-dihydroxy-1,2,3,3a,4,5-hexahydro-4,9b-(epimino-ethano)cyclopenta[a]naphthalene-2-carboxamide]	-1	–	> 20	–
CN1CC[C@]23C[C@@H](C(=O)N4CCOCC4)C[C@@]2(O)[C@H]1Cc1ccc(O)cc13 [Compound 111, ((2R,3aS,4R,9bS)-3a,8-dihydroxy-12-methyl-1,2,3,3a,4,5-hexahydro-4,9b-(epiminoethano)cyclopenta[a]naphthalen-2-yl)(morpholino)methanone]	35.1 ± 1.06	3.17 ± 0.493	–	–
O=C(NCCc1ccc(Cl)cc1)[C@@H]1C[C@]23CCN(CC4CC4)[C@H](Cc4ccc(O)cc42)[C@]3(O)C1 [Compound 129, (2R,3aS,4R,9bS)-N-(4-chlorophenethyl)-12-(cyclopropylmethyl)-3a,8-dihydroxy-1,2,3,3a,4,5-hexahydro-4,9b-(epimino-ethano)cyclopenta[a]naphthalene-2-carboxamide]	1	–	> 20	–
(2R,3aS,4R,9bS)-N-(2-chlorobenzyl)-12- (cyclopropylmethyl)-3a,8-dihydroxy- 1,2,3,3a,4,5-hexahydro-4,9b-(epimino- ethano)cyclopenta[a]naphthalene-2- carboxamide [Compound 148]	–	–	> 20	μ Emax (%) (μ-opioid receptor [2]; relative to DAMGO): 1.00%
